System: hepatocytes
Test: Seq-Well scRNA-Seq of hepatocytes after APAP overdose (signature scores, DEG vs untreated)
Type: in vivo, mouse
[1] = hepatocytes, cluster A48 (APAP) vs other treatment clusters
[2] = time point A6 vs untreated (UT)

CC(=O)Nc1ccc(O)cc1 [APAP, acetaminophen]
Rdh7 avg_logFC [1]: 0.4684 | Reep6 avg_logFC [1]: 0.6233 | Retsat avg_logFC [1]: 0.7096 | Rgs16 avg_logFC [1]: 0.4545 | Rpl38 avg_logFC [1]: 0.3322 | Scand1 avg_logFC [1]: 0.2707 | Serpina3m avg_logFC [1]: 0.4034 | Serpina1d avg_logFC [1]: 0.3053 | Serping1 avg_logFC [1]: 0.5777 | Slc25a10 avg_logFC [1]: 0.4313 | Slc25a20 avg_logFC [1]: 0.3875 | Slc25a47 avg_logFC [1]: 0.6175 | Slc27a5 avg_logFC [1]: 0.4062 | Slc37a4 avg_logFC [1]: 0.4461 | Slco1a4 avg_logFC [1]: 0.5091 | Snord118 avg_logFC [1]: 0.4771 | St3gal5 avg_logFC [1]: 0.5549 | Sult1a1 avg_logFC [1]: 0.4827 | Syvn1 avg_logFC [1]: 0.3041 | Tcea3 avg_logFC [1]: 0.3938 | Tef avg_logFC [1]: 0.3394 | Tmbim4 avg_logFC [1]: 0.3693 | Tmbim6 avg_logFC [1]: 0.3713 | Ttc36 avg_logFC [1]: 0.5638 | Ttpa avg_logFC [1]: 0.4431 | Ttr avg_logFC [1]: 0.4225 | Ugt2b5 avg_logFC [1]: 0.4388 | Vnn3 avg_logFC [1]: 0.3008 | Vtn avg_logFC [1]: 0.5228 | Yipf3 avg_logFC [1]: 0.2785 | avg_logFC 15-Sep [2]: −0.4092 | avg_logFC 0610007P14Rik [2]: −0.257 | avg_logFC 0610011F06Rik [2]: −0.3037 | avg_logFC 1110008F13Rik [2]: −0.3751 | avg_logFC 1110058L19Rik [2]: −0.2581 | avg_logFC 1810022K09Rik [2]: −0.3001 | avg_logFC 2010107E04Rik [2]: −0.3182 | avg_logFC 3110043021Rik [2]: 0.2694 | avg_logFC AA474408 [2]: 0.3471 | avg_logFC AW112010 [2]: −0.2981 | avg_logFC Aadat [2]: −0.3186 | avg_logFC Abcc2 [2]: 0.2897 | avg_logFC Abcd3 [2]: −0.2718 | avg_logFC Abhd14b [2]: −0.3937 | avg_logFC Acads [2]: −0.3242 | avg_logFC Acbd5 [2]: −0.3952 | avg_logFC Acot13 [2]: −0.2886 | avg_logFC Actn4 [2]: 0.3124 | avg_logFC Adtrp [2]: −0.3664 | avg_logFC Agpat2 [2]: −0.2982 | avg_logFC Ak2 [2]: −0.3451 | avg_logFC Akap11 [2]: 0.3464 | avg_logFC Akr1a1 [2]: −0.3269 | avg_logFC Akr1e1 [2]: −0.2582 | avg_logFC Amy1 [2]: −0.283 | avg_logFC Anapc13 [2]: −0.3642 | avg_logFC Ankrd11 [2]: 0.4156 | avg_logFC Anp32a [2]: −0.317 | avg_logFC Anxa5 [2]: 0.3654 | avg_logFC Aox3 [2]: −0.3333 | avg_logFC Apc [2]: 0.279 | avg_logFC Apcs [2]: 0.2989 | avg_logFC Apom [2]: −0.3024 | avg_logFC Aqp9 [2]: −0.3109 | avg_logFC Arl6ip1 [2]: −0.3649 | avg_logFC Atf4 [2]: 0.3411 | avg_logFC Atf6 [2]: 0.3778 | avg_logFC Atp1b1 [2]: 0.3702 | avg_logFC Atp2b1 [2]: 0.3321 | avg_logFC Atp5c1 [2]: −0.3476 | avg_logFC Atp5g3 [2]: −0.3002 | avg_logFC Atp5o [2]: −0.3316 | avg_logFC BC005537 [2]: 0.3543 | avg_logFC Baat [2]: −0.3086 | avg_logFC Baz1a [2]: 0.2596 | avg_logFC Bckdha [2]: −0.35 | avg_logFC Bet1 [2]: −0.2966 | avg_logFC Bhmt2 [2]: −0.3114 | avg_logFC Bnip3 [2]: −0.3362 | avg_logFC Bola3 [2]: −0.3689 | avg_logFC Bptf [2]: 0.3245 | avg_logFC Bsg [2]: −0.3152 | avg_logFC Bst2 [2]: −0.3156 | avg_logFC C8b [2]: −0.3159 | avg_logFC C130074G19Rik [2]: −0.3563 | avg_logFC Car5a [2]: −0.3088 | avg_logFC Cars [2]: 0.3158 | avg_logFC Cast [2]: 0.4009 | avg_logFC Cebpb [2]: −0.3617 | avg_logFC Cela1 [2]: −0.2723 | avg_logFC Cep85l [2]: 0.2779 | avg_logFC Ces1f [2]: −0.3126 | avg_logFC Cfhr1 [2]: −0.3253 | avg_logFC Chmp4b [2]: 0.3002 | avg_logFC Chuk [2]: 0.3724 | avg_logFC Cideb [2]: −0.3684 | avg_logFC Cisd1 [2]: −0.3727 | avg_logFC Cldn2 [2]: −0.2511 | avg_logFC Cldn3 [2]: −0.3145 | avg_logFC Cnpy2 [2]: −0.3729 | avg_logFC Coq9 [2]: −0.3479 | avg_logFC Coro1c [2]: 0.3067 | avg_logFC Cox6b1 [2]: −0.362 | avg_logFC Cox8a [2]: −0.3993 | avg_logFC Cpb2 [2]: −0.3215 | avg_logFC Cpt1a [2]: 0.2611 | avg_logFC Csde1 [2]: 0.3156 | avg_logFC Csrp3 [2]: −0.294 | avg_logFC Ctsc [2]: 0.361 | avg_logFC Cxcl1 [2]: 0.3701 | avg_logFC Cybb [2]: 0.3778 | avg_logFC Cyp4f14 [2]: −0.2959 | avg_logFC Cyp4f15 [2]: −0.2998 | avg_logFC Cyp27a1 [2]: −0.3735 | avg_logFC D10Jhu81e [2]: −0.3957 | avg_logFC D17Wsu92e [2]: 0.2525 | avg_logFC Ddah1 [2]: −0.312 | avg_logFC Ddx3y [2]: 0.3395 | avg_logFC Derl2 [2]: −0.3317 | avg_logFC Dgat2 [2]: −0.3433 | avg_logFC Dhdh [2]: −0.3348 | avg_logFC Dhrs4 [2]: −0.3321 | avg_logFC Dhx9 [2]: 0.3504 | avg_logFC Dnaja2 [2]: 0.3723 | avg_logFC Dnajc5 [2]: 0.3265 | avg_logFC Dnajc19 [2]: −0.316 | avg_logFC Dync1h1 [2]: 0.3796 | avg_logFC Dync1li1 [2]: 0.2624 | avg_logFC Ebp [2]: −0.3553 | avg_logFC Echs1 [2]: −0.3316 | avg_logFC Edf1 [2]: −0.3817 | avg_logFC Eef1a1 [2]: 0.2826 | avg_logFC Eif3c [2]: 0.302 | avg_logFC Eif4b [2]: 0.3682 | avg_logFC Eprs [2]: 0.3701 | avg_logFC Erbb2ip [2]: 0.3332 | avg_logFC Esd [2]: −0.2808 | avg_logFC Ethe1 [2]: −0.3334 | avg_logFC Etnk1 [2]: 0.316 | avg_logFC F10 [2]: −0.2719 | avg_logFC Fah [2]: −0.2593 | avg_logFC Fam25c [2]: −0.2977 | avg_logFC Fam214a [2]: −0.2658 | avg_logFC Fbxo21 [2]: −0.2631 | avg_logFC Fcna [2]: 0.3774 | avg_logFC Fdps [2]: −0.2663 | avg_logFC Fkbp4 [2]: −0.3534 | avg_logFC Fus [2]: 0.3393 | avg_logFC Gadd45g [2]: −0.3554 | avg_logFC Gadd45gip1 [2]: −0.3041 | avg_logFC Gcdh [2]: −0.3003 | avg_logFC Ghr [2]: −0.3648 | avg_logFC Gjb1 [2]: −0.3166 | avg_logFC Glyctk [2]: −0.2977 | avg_logFC Gm2788 [2]: −0.2831 | avg_logFC Gm4951 [2]: −0.3221 | avg_logFC Gm10800 [2]: 0.5626 | avg_logFC Gm24245 [2]: 0.5465 | avg_logFC Grhpr [2]: −0.3531 | avg_logFC Gsr [2]: 0.4128 | avg_logFC Gstm4 [2]: −0.3809 | avg_logFC Gyk [2]: 0.3684 | avg_logFC Hibch [2]: −0.3271 | avg_logFC Hipk3 [2]: 0.3394 | avg_logFC Hist1h1c [2]: −0.3009 | avg_logFC Hmgcs1 [2]: −0.3491 | avg_logFC Hsd17b10 [2]: −0.3772 | avg_logFC Hsp90b1 [2]: −0.2615 | avg_logFC Hspa5 [2]: 0.2682 | avg_logFC Huwe1 [2]: 0.3879 | avg_logFC Ifrd1 [2]: 0.4904 | avg_logFC Il6ra [2]: 0.3044 | avg_logFC Ipo5 [2]: 0.2687 | avg_logFC Ipo7 [2]: 0.3246 | avg_logFC Ivns1abp [2]: 0.3566 | avg_logFC Jhdm1d [2]: 0.3041 | avg_logFC Kif21a [2]: 0.4042 | avg_logFC Lap3 [2]: −0.3644 | avg_logFC Larp4b [2]: 0.3421 | avg_logFC Lcp1 [2]: 0.484 | avg_logFC Lrrfip2 [2]: 0.3731 | avg_logFC Lsmd1 [2]: −0.3131 | avg_logFC Macf1 [2]: 0.4042 | avg_logFC Mak16 [2]: 0.3171 | avg_logFC Map3k5 [2]: 0.3347 | avg_logFC Mbl2 [2]: −0.3465 | avg_logFC Mcee [2]: −0.3199 | avg_logFC Mdh1 [2]: −0.3077 | avg_logFC Mdm2 [2]: 0.3283 | avg_logFC Metap2 [2]: 0.3686 | avg_logFC Mettl7a1 [2]: −0.3221 | avg_logFC Mien1 [2]: −0.3704 | avg_logFC Mki67ip [2]: 0.3184 | avg_logFC Mocs2 [2]: −0.3467 | avg_logFC Mpc1 [2]: −0.2802 | avg_logFC Mrc1 [2]: 0.3404 | avg_logFC Mrp133 [2]: −0.2654 | avg_logFC Mrpl11 [2]: −0.2685 | avg_logFC Mrpl12 [2]: −0.3082 | avg_logFC Mrpl15 [2]: −0.2912 | avg_logFC Mrpl34 [2]: −0.2838 | avg_logFC Mrpl41 [2]: −0.2674

Source: patent US20230053540A1, “TREATMENT OF LIVER INJURY” (Massachusetts Institute of Technology, priority 2019, published 2023)
